{
  "source": "paper PMC8305532",
  "about": "“Bufadienolides from the Skin Secretions of the Neotropical Toad Rhinella alata (Anura: Bufonidae): Antiprotozoal Activity against Trypanosoma cruzi” (Molecules, 2021)",
  "key": {"[1]": {"test_system": "T. cruzi trypomastigotes", "assay": "Antiprotozoal activity against T. cruzi (β-galactosidase reporter strain Tulahuen clone C4, in infected Vero cells)", "type": "cell-based", "conditions": "Trypanosoma cruzi, 120 h, read-out: IC50 T. cruzi", "description": "The evaluation of the antiprotozoal activity against trypanosomes was carried out using the recombinant strain Tulahuen clone C4 of T. cruzi trypomastigotes (ATCC, Manassas, VA, USA). This strain expresses the β-galactosidase enzyme used as a reporter to assess the viability of the trypanosomatid. The parasites were maintained at 37 °C under a 5% CO2 atmosphere in RPMI-1640 culture medium with L-glutamine, 4-(2-Hydroxyethyl)-piperazine-1-ethanesulfonic acid (HEPES) buffer, NaHCO3, 10% FBS, and 0.05% gentamicin (50 mg/mL) as supplements. Vero cells were cultured for 24 h, and one day prior to the experiment, the cells were infected with trypomastigotes. After additional 24 h of infection, bufadienolides were dissolved in DMSO and tested at four different concentrations by duplicate for five days. Benznidazole was used as the positive control. To determine antitrypanosomal activity, 25 µL of chlorophenol-red-β-D-galactopyranoside (Roche Applied Science) (900 µM) were added to each well and allowed to react with the β-galactosidase of the remaining living parasites for 4.5 h. Absorbance was calculated at 570 nm using a microtiter plate reader (Sinergy HT, BioTek Instruments Inc, Winooski, VT, USA).\n(§1) All antitrypanosomal and anticancer assays represent independent analysis. The data are presented as the inhibitory concentration (IC50) ± standard error (SE). The statistical analysis for the IC50 values was carried out employing the Data Analysis complement Wizard of Excel 2000 by adjusting the dose-response curve to a sigmoidal model (Microsoft, Seattle, WA, USA)."}, "[2]": {"test_system": "Vero cells", "assay": "Mammalian cytotoxicity, MTT assay", "type": "cell-based, monkey", "conditions": "Primates, 120 h, read-out: IC50 Vero", "description": "For cytotoxicity assays, Vero cells were obtained from the American Type Culture Collection (ATCC, Manassas, VA, USA) and cultivated in 96-well plates at 37 °C under a 5% CO2 atmosphere, using RPMI-1640 medium (Sigma-Aldrich, Saint Louis, MO, USA) sterilized with 0.05% gentamicin (50 mg/mL) and supplemented with 10% FBS (fetal bovine serum; Gibco, Invitrogen, Carlsbad, CA, USA). Vero cells were allowed to adhere for 24 h prior to incubation for five days with the samples. During the treatment, DMSO was used as negative control, and samples were assayed at four different concentrations. After incubation, MTT (3-(4,5-di-methyl-thiazol-2-yl)-2,5-di-phenyl-tetra-zolium bromide) was added to each well, and absorbance was determined 4 h later at 570 nm using a color plate reader. Cytotoxicity was evaluated colorimetrically by calculating the ability of the remnant living Vero cells to reduce the pale yellow MTT into the black-purple formazan product, as described earlier. All bioassays were performed in duplicate and the IC50 values were determined employing the Data Analysis complement Wizard of Excel 2000 (Microsoft, Seattle, WA, USA)."}, "[3]": {"test_system": "SF-268", "assay": "Anticancer assay (SRB), SF-268", "type": "cell-based", "conditions": "human central nervous system cancer line, 48 h, IC50 ± standard error", "description": "(§2) MCF-7, NCI-H460, and SF-268 cancer cells lines were obtained from the American Type Culture Collection (ATCC, Manassas, VA, USA) and cultivated in 96-well plates at 37 °C under a 5% CO2 atmosphere using RPMI-1640 medium (Sigma-Aldrich, USA) sterilized with 0.05% gentamicin (50 mg/mL), supplemented with 10% FBS (fetal bovine serum; Gibco, Invitrogen, Carlsbad, CA, USA), and allowed to adhere for 24 h. After incubation, cancer cells were treated with bufadienolides dissolved in DMSO at five different concentrations and analyzed by duplicate for 48 h. RPMI without cells was used as color control and doxorubicin was used as inhibition control. After treatment, cells were fixed with 25% tricholoroacetic acid (TCA) for 60 min, air dried, and stained with sulforhodamine-B (SRB). Washes with acetic acid at 1% were carried out to eliminate excess of SRB. Tris was added to dissolve the bound SRB. The plate was shaken and absorbance was read at 515 nm using a color plate reader.\nas §1"}, "[4]": {"test_system": "NCI-H460", "assay": "Anticancer assay (SRB), NCI-H460", "type": "cell-based", "conditions": "human lung cancer line, 48 h, IC50 ± standard error", "description": "as §2, §1"}, "[5]": {"test_system": "MCF-7", "assay": "Anticancer assay (SRB), MCF-7", "type": "cell-based", "conditions": "MCF7, human breast cancer line, 48 h, IC50 ± standard error", "description": "as §2, §1"}, "[6]": {"test_system": "liver cancer cells", "set-up": "method as in PMID 20839128", "conditions": "concentration at which growth inhibition was induced; cited from earlier work"}, "[7]": {"test_system": "T. cruzi trypomastigotes", "conditions": "cited from earlier work"}, "[8]": {"test_system": "(Na+-K+) ATPase from T. cruzi", "set-up": "method as in PMID 16797482", "conditions": "cloned and characterized enzyme; cited from earlier work"}, "[9]": {"conditions": "trypomastigotes, five days treatment, IC50 ± standard error"}, "[10]": {"conditions": "epithelial cells from monkey kidney (ATCC), five days incubation, MTT, IC50 ± standard error"}},
  "note": "Read-outs that look alike come from different tables or passages of the source.",
  "data": [
    {"smiles": "CC12CCC(OC(=O)CCCCC(=O)NC(CCCNC(=N)N)C(=O)O)CC1CCC1C2CCC2(C)C(c3ccc(=O)oc3)C(O)CC12O", "note": "(stereo not drawn) [Compound 1, 16β-hydroxy-desacetyl-bufotalin-3-adipoyl-arginine ester]", "values": [
      {"measurement": "IC50", "setting": "[1]", "value": "8000 ± 750", "unit": "nM"},
      {"measurement": "IC50", "setting": "[2]", "value": "1890 ± 630", "unit": "nM"}
    ]},
    {"smiles": "CC(=O)O[C@H]1C[C@]2(O)[C@@H]3CC[C@@H]4C[C@@H](O)CC[C@]4(C)[C@H]3CC[C@]2(C)[C@H]1c1ccc(=O)oc1", "note": "[Compound 2, Bufotalin]", "values": [
      {"measurement": "IC50", "setting": "[3]", "value": 20500, "unit": "nM"},
      {"measurement": "IC50", "setting": "[1]; [9]", "value": "19600 ± 3380", "unit": "nM"},
      {"measurement": "IC50", "setting": "[4]", "value": "229 ± 0.08", "unit": "nM"},
      {"measurement": "IC50", "setting": "[5]", "value": "94 ± 0.03", "unit": "nM"},
      {"measurement": "IC50", "setting": "[2]; [10]", "value": "46000 ± 6290", "unit": "nM"}
    ]},
    {"smiles": "C[C@]12CC[C@H](OC(=O)CCCCCC(=O)NC(CCCNC(=N)N)C(=O)O)CC1CCC1C2CC[C@]2(C)[C@@H](c3ccc(=O)oc3)[C@@H](O)C[C@]12O", "note": "(stereo partly drawn) [Compound 3, 16β-hydroxy-desacetyl-bufotalin-3-pimeloyl-arginine ester]", "values": [
      {"measurement": "IC50", "setting": "[1]", "value": "8700 ± 1250", "unit": "nM"},
      {"measurement": "IC50", "setting": "[2]", "value": "240 ± 200", "unit": "nM"}
    ]},
    {"smiles": "CC(=O)O[C@H]1C[C@]2(O)[C@@H]3CC[C@@H]4C[C@@H](OC(=O)CCCCCC(=O)NC(CCCNC(=N)N)C(=O)O)CC[C@]4(C)[C@H]3CC[C@]2(C)[C@H]1c1ccc(=O)oc1", "note": "(some centres unmarked) [Compound 4, Bufotalin-3-pimeloyl-arginine ester]", "values": [
      {"measurement": "growth inhibition against liver cancer cells", "setting": "[6]", "value": 7.24, "unit": "µM"},
      {"measurement": "IC50", "setting": "[1]", "value": "4600 ± 1750", "unit": "nM"},
      {"measurement": "IC50", "setting": "[2]", "value": "170 ± 90", "unit": "nM"}
    ]},
    {"smiles": "C[C@]12CC[C@H](OC(=O)CCCCCCC(=O)NC(CCCNC(=N)N)C(=O)O)CC1CCC1C2CC[C@]2(C)[C@@H](c3ccc(=O)oc3)[C@@H](O)C[C@]12O", "note": "(stereo partly drawn) [Compound 5, 16β-hydroxy-desacetyl-bufotalin-3-suberoyl-arginine ester]", "values": [
      {"measurement": "IC50", "setting": "[1]", "value": "6900 ± 950", "unit": "nM"},
      {"measurement": "IC50", "setting": "[2]", "value": "810 ± 350", "unit": "nM"}
    ]},
    {"smiles": "CC(=O)O[C@H]1C[C@]2(O)[C@@H]3CC[C@@H]4C[C@@H](OC(=O)CCCCCCC(=O)NC(CCCNC(=N)N)C(=O)O)CC[C@]4(C)[C@H]3CC[C@]2(C)[C@H]1c1ccc(=O)oc1", "note": "(some centres unmarked) [Compound 6, Bufotalin-3-suberoyl-arginine ester]", "values": [
      {"measurement": "IC50", "setting": "[1]", "value": "4900 ± 1000", "unit": "nM"},
      {"measurement": "IC50", "setting": "[2]", "value": "340 ± 200", "unit": "nM"}
    ]},
    {"smiles": "CC(=O)O[C@H]1[C@H]2O[C@]23[C@@H]2CC[C@@H]4C[C@@H](OC(=O)CCCCC(=O)NC(CCCNC(=N)N)C(=O)O)CC[C@]4(C)[C@H]2CC[C@]3(C)[C@H]1c1ccc(=O)oc1", "note": "(some centres unmarked) [Compound 7, Cinobufagin-3-adipoyl-arginine ester]", "values": [
      {"measurement": "IC50", "setting": "[1]", "value": "16700 ± 2930", "unit": "nM"},
      {"measurement": "IC50", "setting": "[2]", "value": "3600 ± 1640", "unit": "nM"}
    ]},
    {"smiles": "CC(=O)O[C@H]1[C@H]2O[C@]23[C@@H]2CC[C@@H]4C[C@@H](OC(=O)CCCCCC(=O)NC(CCCNC(=N)N)C(=O)O)CC[C@]4(C)[C@H]2CC[C@]3(C)[C@H]1c1ccc(=O)oc1", "note": "(some centres unmarked) [Compound 8, Cinobufagin-3-pimeloyl-arginine ester]", "values": [
      {"measurement": "IC50", "setting": "[1]", "value": "14700 ± 1800", "unit": "nM"},
      {"measurement": "IC50", "setting": "[2]", "value": "720 ± 310", "unit": "nM"}
    ]},
    {"smiles": "CC(=O)O[C@H]1[C@H]2O[C@]23[C@@H]2CC[C@@H]4C[C@@H](OC(=O)CCCCCCC(=O)NC(CCCNC(=N)N)C(=O)O)CC[C@]4(C)[C@H]2CC[C@]3(C)[C@H]1c1ccc(=O)oc1", "note": "(some centres unmarked) [Compound 9, Cinobufagin-3-suberoyl-arginine ester]", "values": [
      {"measurement": "IC50", "setting": "[1]", "value": "19000 ± 5730", "unit": "nM"},
      {"measurement": "IC50", "setting": "[2]", "value": "250 ± 80", "unit": "nM"}
    ]},
    {"smiles": "CC(=O)O[C@H]1[C@H]2O[C@]23[C@@H]2CC[C@@H]4C[C@@H](O)CC[C@]4(C)[C@H]2CC[C@]3(C)[C@H]1c1ccc(=O)oc1", "note": "[Compound 10, Cinobufagin]", "values": [
      {"measurement": "IC50", "setting": "[3]", "value": 4680, "unit": "nM"},
      {"measurement": "IC50", "setting": "[1]; [9]", "value": "29000 ± 2570", "unit": "nM"},
      {"measurement": "IC50", "setting": "[4]", "value": "14 ± 0.01", "unit": "nM"},
      {"measurement": "IC50", "setting": "[5]", "value": "9 ± 0.01", "unit": "nM"},
      {"measurement": "IC50", "setting": "[2]; [10]", "value": "54100 ± 4730", "unit": "nM"}
    ]},
    {"smiles": "O=C(Cn1ccnc1[N+](=O)[O-])NCc1ccccc1", "note": "[benznidazole, reference compound]", "values": [
      {"measurement": "IC50", "setting": "[1]; [9]", "value": "2730 ± 160", "unit": "nM"}
    ]},
    {"smiles": "COc1cccc2c1C(=O)c1c(O)c3c(c(O)c1C2=O)C[C@@](O)(C(=O)CO)C[C@@H]3O[C@H]1C[C@H](N)[C@H](O)[C@H](C)O1", "note": "[doxorubicin, reference compound]", "values": [
      {"measurement": "IC50", "setting": "[3]", "value": "610 ± 57", "unit": "nM"},
      {"measurement": "IC50", "setting": "[4]", "value": "59 ± 5.06", "unit": "nM"},
      {"measurement": "IC50", "setting": "[5]", "value": "76 ± 3.01", "unit": "nM"},
      {"measurement": "IC50", "setting": "[2]; [10]", "value": "230 ± 40", "unit": "nM"}
    ]},
    {"smiles": "C[C@]12CC[C@H]3[C@@H](CC[C@]4(O)C[C@@H](O)CC[C@]34C=O)[C@@]1(O)CC[C@@H]2c1ccc(=O)oc1", "note": "[hellebrigenin]", "values": [
      {"measurement": "IC50 against T. cruzi trypomastigotes", "setting": "[7]; trypomastigotes, ref Tempone et al. (2008) [13]", "value": 91.7, "unit": "µg/mL"}
    ]},
    {"smiles": "C[C@@H]1O[C@@H](O[C@H]2C[C@@H](O)[C@]3(CO)[C@H]4[C@H](O)C[C@]5(C)[C@@H](C6=CC(=O)OC6)CC[C@]5(O)[C@@H]4CC[C@]3(O)C2)[C@H](O)[C@H](O)[C@H]1O", "note": "[ouabain]", "values": [
      {"measurement": "inhibition of enzymatic activity of T. cruzi (Na+-K+) ATPase", "setting": "[8]", "value": "not inhibited"}
    ]},
    {"smiles": "C[C@]12CC[C@H](O)C[C@@]1(O)CC[C@@H]1[C@@H]2CC[C@]2(C)[C@@H](c3ccc(=O)oc3)CC[C@]12O", "note": "[telocinobufagin]", "values": [
      {"measurement": "IC50 against T. cruzi trypomastigotes", "setting": "[7]", "value": "> 200", "unit": "µg/mL"}
    ]}
  ]
}
